Data on 22 compounds can be found in US20250320202A1, “PRMT5 INHIBITOR, PREPARATION METHOD THEREFOR, AND PHARMACEUTICAL USE THEREOF” (Abbisko Therapeutics Co., Ltd., priority 2022, published 2025).

One may read the IC50 as the point on the concentration scale where inhibition reaches its midpoint.

Test [1] deals with HCT116 MTAP knockout cells. In words: Human colon cancer HCT116 cell proliferation inhibition test (CellTiter-Glo, 6 days), MTAP knockout cells. The class given is cell-based. Particulars: HCT-116, 144 h. As to the method: (§1) 1. HCT116 MTAP knockout and MTAP wild-type cells were plated in 96-well flat bottom plates, and cultured overnight with McCoy's 5A medium containing 10% fetal bovine serum+1% penicillin-streptomycin at 37° C. and 5% CO2.
(§2) 2. On the next day, the compound was dissolved with DMSO, diluted with DMSO and medium successively and transferred to the cell plate. The final concentration of the compound was 10 μM, the compound was diluted 4 times, with 9 concentration gradients, and DMSO control was added.
(§3) 3. Cells that have not been treated with the compound were removed. CellTiter-Glo Luminescent Cell Viability Assay (Promega) was used to detect cell viability, the operation was performed with reference to the package insert of the kit, and then the cell plate was placed on EnVision Multilabel Reader to detect the cold light signal.
(§4) 4. Meanwhile, the cell plate treated with the compound was cultured at 37° C. and 5% CO2 for 6 consecutive days.
(§5) 5. Then, CellTiter-Glo was also used to detect cell viability.
(§6) 6. Finally, the four-parameter dose-response curve module of GraphPad Prism v 9.2.0 software was used to plot the dose-response curve and calculate the IC50 for proliferation inhibition (unit: nM).
Background: In ATP-based viability assays light output follows the ATP content of the culture.

For test [2], the system named is HCT116 MTAP wild-type cells. Nature of the test: Human colon cancer HCT116 cell proliferation inhibition test (CellTiter-Glo, 6 days), MTAP wild-type cells. Format: cell-based. Particulars: HCT-116, 144 h. As for the experimental part:
as §1, §2, §3, §4, §5, §6

On to `Cn1cc(N(C(=O)c2ccc3nc(N)c4ccncc4c3c2)C2CCc3cc(C(F)(F)F)ccc32)cn1` (centres unmarked) [Example 132, 5-amino-N-(1-methyl-1H-pyrazol-4-yl)-N-(5-(trifluoromethyl)-2,3-dihydro-1H-inden-1-yl)benzo[c][2,6]naphthyridin-9-carboxamide], for which the values for the IC50 in test [1] and in test [2] were 44 nM and 1950 nM, respectively.

`Cn1cc(N(C(=O)c2ccc3nc(N)c4ccncc4c3c2)C2COc3cc(C(F)(F)F)ccc32)cn1` (centres unmarked) [Example 133, 5-amino-N-(1-methyl-1H-pyrazol-4-yl)-N-(6-(trifluoromethyl)-2,3-dihydrobenzofuran-3-yl)benzo[c][2,6]naphthyridin-9-carboxamide]: the IC50 in test [1] turned out to be 8 nM; in test [2], 708 nM.

Consider `Cn1cc(N(C(=O)c2cc3c4c(c(N)nc3cc2F)COC4)C2CCc3nc(C(F)(F)F)ccc32)cn1` (centres unmarked) [Example 160, 4-amino-7-fluoro-N-(1-methyl-1H-pyrazol-4-yl)-N-(2-(trifluoromethyl)-6,7-dihydro-5H-cyclopenta[b]pyridin-5-yl)-1,3-dihydrofuro[3,4-c]quinolin-8-carboxamide], for which the half-inhibitory concentration (IC50) in test [1] turned out to be 17 nM; in test [2], 335 nM.

Turning to `Cn1cc(N(C(=O)c2ccc3nc(N)c4c(cnn4C)c3c2)C2COc3cc(C(F)(F)F)ccc32)cn1` (centres unmarked) [Example 165, 4-amino-3-methyl-N-(1-methyl-1H-pyrazol-4-yl)-N-(6-(trifluoromethyl)-2,3-dihydrobenzofuran-3-yl)-3H-pyrazolo[3,4-c]quinolin-8-carboxamide], the 50% inhibitory concentration (IC50) in test [1] turned out to be 35 nM; in test [2], 2510 nM.

As for `Cn1ccc(N(C(=O)c2cc3c(cc2F)nc(N)c2cnn(C)c23)C2CCc3cc(C(F)(F)F)ccc32)n1` (centres unmarked) [Example 168, 4-amino-7-fluoro-1-methyl-N-(1-methyl-1H-pyrazol-3-yl)-N-(5-(trifluoromethyl)-2,3-dihydro-1H-inden-1-yl)-1H-pyrazolo[4,3-c]quinolin-8-carboxamide], the IC50 in test [1] amounted to 0.3 nM; in test [2], 276 nM.

On to `Cn1ncc2c(N)nc3cc(O)c(C(=O)N(c4nccs4)[C@@H]4CCc5cc(C(F)(F)F)ccc54)cc3c21` [Example 184, (R)-4-amino-7-hydroxy-1-methyl-N-(thiazol-2-yl)-N-(5-(trifluoromethyl)-2,3-dihydro-1H-inden-1-yl)-1H-pyrazolo[4,3-c]quinolin-8-carboxamide], for which the IC50 in test [1] and in test [2] was greater than 10000 nM throughout.

On to `Cn1ncc2c(N)nc3cc(F)c(C(=O)N(CC(F)(F)F)[C@@H]4COc5cc(C(F)(F)F)ccc54)cc3c21` [Example 185, (S)-4-amino-7-fluoro-1-methyl-N-(2,2,2-trifluoroethyl)-N-(6-(trifluoromethyl)-2,3-dihydrobenzofuran-3-yl)-1H-pyrazolo[4,3-c]quinolin-8-carboxamide], for which the IC50 is 28 nM in test [1] and 1260 nM in test [2].

Turning to `Cn1ncc2c(N)nc3cc(F)c(C(=O)N(CC(F)(F)F)[C@H]4COc5cc(C(F)(F)F)ccc54)cc3c21` [Example 186, (R)-4-amino-7-fluoro-1-methyl-N-(2,2,2-trifluoroethyl)-N-(6-(trifluoromethyl)-2,3-dihydrobenzofuran-3-yl)-1H-pyrazolo[4,3-c]quinolin-8-carboxamide], the figures for the IC50 in test [1] and in test [2] were 506 nM and greater than 10000 nM, respectively.

For the compound `Cn1cc(N(C(=O)c2ccc3nc(N)c4c(cnn4C)c3c2)[C@@H]2COc3cc(C(F)(F)F)ccc32)cn1` [Example 187, (S)-4-amino-3-methyl-N-(1-methyl-1H-pyrazol-4-yl)-N-(6-(trifluoromethyl)-2,3-dihydrobenzofuran-3-yl)-3H-pyrazolo[3,4-c]quinolin-8-carboxamide], the IC50 amounted to 50 nM in test [1] and 2440 nM in test [2].

For `Cn1cc(N(C(=O)c2ccc3nc(N)c4c(cnn4C)c3c2)[C@H]2COc3cc(C(F)(F)F)ccc32)cn1` [Example 188, (R)-4-amino-3-methyl-N-(1-methyl-1H-pyrazol-4-yl)-N-(6-(trifluoromethyl)-2,3-dihydrobenzofuran-3-yl)-3H-pyrazolo[3,4-c]quinolin-8-carboxamide], the values for the IC50 in test [1] and in test [2] were 2640 nM and greater than 10000 nM, respectively.

Consider `Nc1nc2ccc(C(=O)N(CC3CC3)[C@H]3COc4cc(C(F)(F)F)ccc43)cc2c2cnccc12` [Example 193, (R)-5-amino-N-(cyclopropylmethyl)-N-(6-(trifluoromethyl)-2,3-dihydrobenzofuran-3-yl)benzo[c][2,6]naphthyridin-9-carboxamide], for which the concentration for half-maximal inhibition (IC50) in test [1] is 452 nM; in test [2], 9090 nM.

For `Nc1nc2ccc(C(=O)N(CC3CC3)[C@@H]3COc4nc(C(F)(F)F)ccc43)cc2c2cnccc12` [Example 195, (S)-5-amino-N-(cyclopropylmethyl)-N-(6-(trifluoromethyl)-2,3-dihydrofuro[2,3-b]pyridin-3-yl)benzo[c][2,6]naphthyridin-9-carboxamide], the half-maximal inhibitory concentration (IC50) in test [1] was found to be 8.6 nM; in test [2], 423 nM.

Turning to `Cn1ccc(N(C(=O)c2cc3c(cc2F)nc(N)c2cnn(C)c23)[C@@H]2CCc3cc(C(F)(F)F)ccc32)n1` [Example 197, (R)-4-amino-7-fluoro-1-methyl-N-(1-methyl-1H-pyrazol-3-yl)-N-(5-(trifluoromethyl)-2,3-dihydro-1H-inden-1-yl)-1H-pyrazolo[4,3-c]quinolin-8-carboxamide], the IC50 in test [1] is 0.9 nM; in test [2], 264 nM.

In the case of `Cn1cc(N(C(=O)c2cc3c4c(c(N)nc3cc2F)COC4)[C@@H]2COc3cc(C(F)(F)F)ccc32)cn1` [Example 201, (S)-4-amino-7-fluoro-N-(1-methyl-1H-pyrazol-4-yl)-N-(6-(trifluoromethyl)-2,3-dihydrobenzofuran-3-yl)-1,3-dihydrofuro[3,4-c]quinolin-8-carboxamide], the figures for the IC50 in test [1] and in test [2] were 2 nM and 78 nM, respectively.

Take `C[C@H]1OCc2c1c(N)nc1cc(F)c(C(=O)N(c3cnn(C)c3)[C@@H]3COc4cc(C(F)(F)F)ccc43)cc21` [Example 202, (R)-4-amino-7-fluoro-3-methyl-N-(1-methyl-1H-pyrazol-4-yl)-N-((S)-6-(trifluoromethyl)-2,3-dihydrobenzofuran-3-yl)-1,3-dihydrofuro[3,4-c]quinolin-8-carboxamide]: the half-inhibitory concentration (IC50) in test [1] is 2 nM; in test [2] it was 36 nM.

Turning to `Cn1ncc2c(N)nc3cc(F)c(C(=O)N(c4cnsc4)[C@@H]4CCc5cc(C(F)(F)F)ccc54)cc3c21` [Example 203, (R)-4-amino-7-fluoro-N-(isothiazol-4-yl)-1-methyl-N-(5-(trifluoromethyl)-2,3-dihydro-1H-inden-1-yl)-1H-pyrazolo[4,3-c]quinolin-8-carboxamide], the IC50 turned out to be 9 nM in test [1] and 104 nM in test [2].

For `Nc1nc2ccc(C(=O)N(c3cnsc3)[C@@H]3CCc4cc(C(F)(F)F)ccc43)cc2c2cnccc12` [Example 204, (R)-5-amino-N-(isothiazol-4-yl)-N-(5-(trifluoromethyl)-2,3-dihydro-1H-inden-1-yl)benzo[c][2,6]naphthyridin-9-carboxamide], the concentration for half-maximal inhibition (IC50) was 6 nM in test [1] and 293 nM in test [2].

For `Cn1cc(N(C(=O)c2cc3c(cc2F)nc(N)c2cnn(C)c23)[C@@H]2COc3cc(C(F)(F)F)ccc32)cn1` [Example 205, (S)-4-amino-7-fluoro-1-methyl-N-(1-methyl-1H-pyrazol-4-yl)-N-(6-(trifluoromethyl)-2,3-dihydrobenzofuran-3-yl)-1H-pyrazolo[4,3-c]quinolin-8-carboxamide], the half-inhibitory concentration (IC50) amounted to 0.8 nM in test [1] and 64 nM in test [2].

For the compound `Cn1cc(N(C(=O)c2cc3c(cc2F)nc(N)c2cnn(C)c23)[C@H]2COc3cc(C(F)(F)F)ccc32)cn1` [Example 206, (R)-4-amino-7-fluoro-1-methyl-N-(1-methyl-1H-pyrazol-4-yl)-N-(6-(trifluoromethyl)-2,3-dihydrobenzofuran-3-yl)-1H-pyrazolo[4,3-c]quinolin-8-carboxamide], the 50% inhibitory concentration (IC50) was 82 nM in test [1] and 8470 nM in test [2].

For `C[C@H]1OCc2c1c(N)nc1cc(F)c(C(=O)N(c3cnn(C)c3)[C@@H]3COc4nc(C(F)(F)F)ccc43)cc21` [Example 208, (R)-4-amino-7-fluoro-3-methyl-N-(1-methyl-1H-pyrazol-4-yl)-N-((S)-6-(trifluoromethyl)-2,3-dihydrofuro[2,3-b]pyridin-3-yl)-1,3-dihydrofuro[3,4-c]quinolin-8-carboxamide], the IC50 in test [1] was determined as 4 nM; in test [2], 130 nM.

Take `Cn1cc(N(C(=O)c2cc3c4c(c(N)nc3cc2F)COC4)[C@@H]2COc3nc(C(F)(F)F)ccc32)cn1` [Example 209, (S)-4-amino-7-fluoro-N-(1-methyl-1H-pyrazol-4-yl)-N-(6-(trifluoromethyl)-2,3-dihydrofuro[2,3-b]pyridin-3-yl)-1,3-dihydrofuro[3,4-c]quinolin-8-carboxamide]: the results for the half-maximal inhibitory concentration (IC50) in test [1] and in test [2] were 4 nM and 279 nM, respectively.

In the case of `Nc1nc2ccc(C(=O)N(c3ncccn3)C3CCc4cc(C(F)(F)F)ccc43)cc2c2cnccc12` (centres unmarked) [Example 210, 5-amino-N-(pyrimidin-2-yl)-N-(5-(trifluoromethyl)-2,3-dihydro-1H-inden-1-yl)benzo[c][2,6]naphthyridin-9-carboxamide], the IC50 was found to be 63 nM in test [1] and 7400 nM in test [2].
